Laboratory results as given in patent US9034899B2, “Aryl, heteroaryl, and heterocycle substituted tetrahydroisoquinolines and use thereof” (Albany Molecular Research, Inc., priority 2009, dated 2015).
Read-outs that look alike come from different tables or passages of the source.

What was measured:
[1] = biological target: hNET (Homo sapiens (Human), UniProt P23975); experiment: NET radioligand binding assay ([3H]nisoxetine, HEK-293 membranes); conditions: for IC50: (+)-enantiomers; for inhibition at 0.1 µM: 100 nM, NET IC50 with footnote *
hNET, sequence (P23975 whole entry): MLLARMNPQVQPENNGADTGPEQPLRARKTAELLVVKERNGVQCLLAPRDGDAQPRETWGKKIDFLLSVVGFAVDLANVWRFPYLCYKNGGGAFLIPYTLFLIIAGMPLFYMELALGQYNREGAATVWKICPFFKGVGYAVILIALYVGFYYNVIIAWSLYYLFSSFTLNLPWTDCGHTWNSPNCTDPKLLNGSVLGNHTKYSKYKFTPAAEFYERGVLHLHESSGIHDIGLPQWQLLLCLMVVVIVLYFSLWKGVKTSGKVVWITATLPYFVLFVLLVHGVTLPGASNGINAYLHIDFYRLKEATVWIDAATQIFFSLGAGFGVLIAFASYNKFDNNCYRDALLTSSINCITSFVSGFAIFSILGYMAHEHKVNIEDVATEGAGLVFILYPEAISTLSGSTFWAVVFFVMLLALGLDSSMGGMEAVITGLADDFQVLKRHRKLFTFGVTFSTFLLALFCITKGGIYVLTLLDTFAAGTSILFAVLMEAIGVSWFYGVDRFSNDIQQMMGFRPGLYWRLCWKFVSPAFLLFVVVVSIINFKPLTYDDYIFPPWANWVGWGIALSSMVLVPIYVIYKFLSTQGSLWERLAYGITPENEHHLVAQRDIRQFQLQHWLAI
Experimental: (§1) Recombinant HEK-293 cells expressing either the hSERT, hDAT, or hNET proteins were harvested from T-175 flasks as follows. The medium was removed from the flasks and the cells rinsed with HBSS without Ca and without Mg. The cells were then incubated for 5-10 minutes in 10 mM Tris-Cl, pH 7.5, 5 mM EDTA before the cells were lifted with a combination of pipetting and scraping, as needed. The cell suspension was collected into centrifuge bottles and homogenized for 30 seconds with a Polytron homogenizer. The suspension was centrifuged for 30 minutes at 32,000×g, 4° C. The supernatant was decanted and the pellet resuspended and homogenized in 50 mM Tris-Cl, pH 7.5, 1 mM EDTA for 10 seconds. The suspension was then centrifuged again for 30 minutes at 32,000×g, 4° C. The supernatant was decanted and the pellet resuspended in 50 mM Tris-Cl, pH 7.5, 1 mM EDTA and briefly homogenized. A Bradford assay (Bio-rad) was performed and the membrane preparation diluted to 2 mg/ml with 50 mM Tris-Cl, pH 7.5, 1 mM EDTA. Aliquots were prepared, and then frozen and stored at −80° C.
(§2) Compounds were dissolved in 100% DMSO at a concentration 100 times the desired highest assay concentration, serially diluted 1:3 in 100% DMSO, and 1.0 μl/well of each solution was dispensed to a Nunc polypropylene, round bottom, 384-well plate. 100% inhibition is defined with 1.0 μl/well of 10 mM desipramine dissolved in DMSO. 50 μl/well of a 2× membrane preparation (0.4 mg/ml in 50 mM Tris-Cl, pH 7.5, 120 mM NaCl, 5 mM KCl) and 50 μl/well of a 2× radioligand solution (4 nM [^3H]nisoxetine in 50 mM Tris-Cl, pH 7.5, 120 mM NaCl, 5 mM KCl) were added to the well and the reaction incubated for 1 hour at room temperature. The contents of the assay plate were then transferred to a Millipore MultiscreenHTS GF/B filter plate which was pretreated with 0.5% PEI for at least one hour. The plate was vacuum filtered and washed with 7 washes of 100 μl/well 50 mM Tris-Cl, pH 7.5, 120 mM NaCl, 5 mM KCl chilled to 4° C. The filtration and washing were completed in less than 90 seconds. The plates were air-dried overnight, 12 μl/well of MicroScint scintillation fluid added, and the plates counted in a Trilux.
(§3) The raw data was normalized to percent inhibition using control wells defining 0% (DMSO only) and 100% (selective inhibitor) inhibition which were run on each plate. Each plate was run in triplicate, and the concentration response curve thus generated was fit using the four-parameter dose response equation, Y=Bottom+(Top-Bottom)/(1+10^((LogIC50−X)*HillSlope)) in order to determine the IC50 value for each compound. The radioligand concentration chosen for each assay corresponds to the Kd concentration determined through saturation binding analysis for each assay.

[2] = biological target: hSERT (Homo sapiens (Human), UniProt P31645); experiment: SERT radioligand binding assay ([125I]RTI-55, HEK-293 membranes); conditions: for inhibition at 0.1 µM: 100 nM, SERT IC50 with footnote *
hSERT, sequence (P31645 whole entry): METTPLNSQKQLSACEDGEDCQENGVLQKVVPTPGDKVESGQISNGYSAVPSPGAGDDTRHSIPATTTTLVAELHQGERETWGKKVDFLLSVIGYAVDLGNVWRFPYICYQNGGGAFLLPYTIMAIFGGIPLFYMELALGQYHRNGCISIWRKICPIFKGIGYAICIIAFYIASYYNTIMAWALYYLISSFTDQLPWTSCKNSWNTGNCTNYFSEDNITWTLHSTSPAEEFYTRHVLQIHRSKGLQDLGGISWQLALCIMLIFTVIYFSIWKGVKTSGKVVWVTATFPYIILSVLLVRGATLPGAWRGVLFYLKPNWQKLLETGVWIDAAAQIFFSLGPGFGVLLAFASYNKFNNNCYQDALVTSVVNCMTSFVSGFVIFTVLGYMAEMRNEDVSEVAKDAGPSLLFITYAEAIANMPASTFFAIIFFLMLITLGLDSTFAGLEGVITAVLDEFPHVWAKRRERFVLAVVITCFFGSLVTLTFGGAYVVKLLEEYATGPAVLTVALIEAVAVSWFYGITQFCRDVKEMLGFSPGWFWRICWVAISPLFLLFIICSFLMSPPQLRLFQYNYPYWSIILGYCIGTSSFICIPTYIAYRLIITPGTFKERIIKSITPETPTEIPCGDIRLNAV
Experimental: as §1, with “The” for “Recombinant HEK-293 cells expressing either the hSERT, hDAT, or hNET proteins were harvested from T-175 flasks as follows. The”
as §2, with “0.4” for “1.0”, “100% inhibition is defined with 1.0 μl/well of 10 mM desipramine dissolved in DMSO. 50 μl/well of a 2× membrane preparation (0.4 mg/ml in 50 mM Tris-Cl, pH 7.5, 120 mM NaCl, 5 mM KCl) and 50 μl/well of a 2× radioligand solution (4 nM [^3H]nisoxetine in 50 mM Tris-Cl, pH 7.5, 120 mM NaCl, 5 mM KCl) were added to the well and the reaction incubated for 1 hour at room temperature.” left out
as §3, with “Each” for “The raw data was normalized to percent inhibition using control wells defining 0% (DMSO only) and 100% (selective inhibitor) inhibition which were run on each plate. Each”

[3] = biological target: hDAT (Homo sapiens (Human), UniProt Q01959); experiment: DAT radioligand binding assay ([125I]RTI-55, HEK-293 membranes); conditions: for inhibition at 0.1 µM: 100 nM, DAT IC50 with footnote *
hDAT, sequence (Q01959 whole entry): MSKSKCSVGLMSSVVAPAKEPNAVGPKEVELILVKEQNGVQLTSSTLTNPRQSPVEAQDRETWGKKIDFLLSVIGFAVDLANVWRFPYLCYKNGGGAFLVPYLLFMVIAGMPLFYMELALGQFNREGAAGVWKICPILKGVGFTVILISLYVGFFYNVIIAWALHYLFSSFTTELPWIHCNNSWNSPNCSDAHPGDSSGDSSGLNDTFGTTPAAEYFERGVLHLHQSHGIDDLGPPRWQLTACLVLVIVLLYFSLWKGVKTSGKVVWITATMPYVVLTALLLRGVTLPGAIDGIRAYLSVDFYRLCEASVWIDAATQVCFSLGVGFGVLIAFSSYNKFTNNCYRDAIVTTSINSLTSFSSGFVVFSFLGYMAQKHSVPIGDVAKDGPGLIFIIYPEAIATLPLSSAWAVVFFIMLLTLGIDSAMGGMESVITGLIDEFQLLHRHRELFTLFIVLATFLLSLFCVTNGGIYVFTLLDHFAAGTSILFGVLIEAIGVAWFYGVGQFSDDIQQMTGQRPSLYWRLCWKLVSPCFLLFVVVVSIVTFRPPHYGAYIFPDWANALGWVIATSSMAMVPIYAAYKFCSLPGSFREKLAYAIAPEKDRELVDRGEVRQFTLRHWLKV
Experimental: as §1
Compounds were dissolved in 100% DMSO at a concentration 100 times the desired highest assay concentration, serially diluted 1:3 in 100% DMSO, and 0.4 μl/well of each solution was dispensed to a Nunc polypropylene, round bottom, 384-well plate. 100% inhibition is defined with 0.4 μl/well of 1 mM GBR-12935 dissolved in DMSO. 20 ul/well of a 2× membrane preparation (12.5 μg/ml in 30 mM sodium phosphate buffer, pH 7.9 at 4° C.) and 20 μl/well of a 2× radioligand solution ([…] [^125I]RTI-55 in 30 mM sodium phosphate buffer, pH 7.9 at 4° C.) were added to the well and the reaction incubated for 1 hour at room temperature. The contents of the assay plate were then transferred to a Millipore MultiscreenHTS GF/B filter plate which was pretreated with 0.5% PEI for at least one hour. The plate was vacuum-filtered and washed with 7 washes of 100 μl/well 50 mM Tris-Cl, pH 7.5, 120 mM NaCl, 5 mM KCl chilled to 4° C. The filtration and washing were completed in less than 90 seconds. The plates were air-dried overnight, 12 μl/well of MicroScint scintillation fluid added, and the plates counted in a Trilux.
as §3

[4] = (+)-enantiomers, read-out: SERT IC50
[5] = (+)-enantiomers, read-out: DAT IC50

inhibition at 0.1 µM [2] [%]	inhibition at 0.1 µM [3] [%]	inhibition at 0.1 µM [1] [%]	SMILES	IC50 [1] [nM]	IC50 [2] [nM]	IC50 [3] [nM]	IC50 [2, 4] [nM]	IC50 [3, 5] [nM]
–	–	–	CC1(C)NCC(c2ccc(Cl)c(Cl)c2)c2ccc(-c3ccc(C(F)(F)F)nn3)cc21 (single isomer, unassigned) [Example 10, 4-(3,4-dichlorophenyl)-7-(6-(trifluoromethyl)pyridazin-3-yl)-1,1-dimethyl-1,2,3,4-tetrahydroisoquinoline]	549	–	–	–	–
–	–	–	CC1(C)NCC(c2ccc(Cl)cc2)c2ccc(-c3ccc(C(F)(F)F)nn3)cc21 (single isomer, unassigned) [Example 35, 4-(4-chlorophenyl)-1,1-dimethyl-7-(6-(trifluoromethyl)pyridazin-3-yl)-1,2,3,4-tetrahydroisoquinoline]	1020	61.1	80.2	–	–
–	–	–	CNc1ccc(-c2ccc3c(c2)CNCC3c2ccc(F)cc2)nn1 (single isomer, unassigned; (+)) [Example 3, (+)-6-(4-(4-fluorophenyl)-1,2,3,4-tetrahydroisoquinolin-7-yl)-N-methylpyridazin-3-amine]	150	–	–	53.8	90.5
–	–	–	FC(F)(F)c1ccc(-c2ccc3c(c2)NCCC3c2ccc(Cl)cc2)nn1 (single isomer, unassigned; (+)) [Example 4, (+)-4-(4-chlorophenyl)-7-(6-(trifluoromethyl)pyridazin-3-yl)-1,2,3,4-tetrahydroquinoline]	47.3	–	–	21.4	138
–	–	–	Nc1ccc(-c2ccc3c(c2)CNCC3c2ccc(Cl)cc2)nn1 (single isomer, unassigned; (+)) [Example 5, (+)-6-(4-(4-chlorophenyl)-1,2,3,4-tetrahydroisoquinolin-7-yl)pyridazin-3-amine]	63.1	–	–	15.8	31.2
–	–	–	Fc1cc2c(cc1-c1ccc(C(F)(F)F)nn1)CNCC2c1ccc(Cl)c(Cl)c1 (single isomer, unassigned; (+)) [Example 29, (+)-4-(3,4-dichlorophenyl)-6-fluoro-7-(6-(trifluoromethyl)pyridazin-3-yl)-1,2,3,4-tetrahydroisoquinoline]	34.1	–	–	29.7	78.3
–	–	–	Fc1cc2c(cc1-c1ccc(OC(F)F)nn1)CNCC2c1ccc(Cl)c(Cl)c1 (single isomer, unassigned; (+)) [Example 31, (+)-4-(3,4-dichlorophenyl)-7-(6-(difluoromethoxy)pyridazin-3-yl)-6-fluoro-1,2,3,4-tetrahydroisoquinoline]	9.8	–	–	15.9	33
–	–	–	Fc1cc2c(cc1-c1ccc3ncnn3c1)CNCC2c1ccc(Cl)c(Cl)c1 (single isomer, unassigned; (+)) [Example 39, (+)-7-([1,2,4]triazolo[1,5-a]pyridin-6-yl)-4-(3,4-dichlorophenyl)-6-fluoro-1,2,3,4-tetrahydroisoquinoline]	70.4	–	–	14.1	83.2
–	–	–	Cc1ccc(C2CCNc3cc(-c4ccc(C)nn4)ccc32)cc1 (stereo not shown) [Example 1, 7-(6-methylpridazin-3-yl)-4-p-tolyl-1,2,3,4-tetrahydroquinoline]	174	–	–	27.9	64.5
–	–	–	Nc1ccc(-c2ccc3c(c2)CNCC3c2ccc(F)cc2)nn1 (stereo not shown) [Example 2, 6-(4-(4-fluorophenyl)-1,2,3,4-tetrahydroisoquinolin-7-yl)pyridazin-3-amine]	360	–	–	144	89.4
35	9	0	CC1NCC(c2ccc(Cl)cc2)c2ccc(-c3ccc(Cl)nn3)cc21 (stereo not shown) [Example 6, 4-(4-Chloro-phenyl)-7-(6-chloro-pyridazin-3-yl)-1-methyl-1,2,3,4-tetrahydro-isoquinoline]	–	–	–	–	–
35	16	0	CC1NCC(c2ccc(Cl)cc2)c2ccc(-c3cccnn3)cc21 (stereo not shown) [Example 7, 4-(4-Chloro-phenyl)-7-(pyridazin-3-yl)-1-methyl-1,2,3,4-tetrahydro-isoquinoline]	–	–	–	–	–
